These results are taken from US20250282895A1, “PHARMACEUTICAL COMPOSITIONS OF CHEMOTHERAPEUTIC AGENTS BASED ON BETA-S[…]-AMINO ACID DERIVATIVES” (priority 2021, published 2025).

Structures can show the parent of a compound that is named as a salt.

The data set is described as follows: Comparative stability, Formulation 2 (based on Alkeran). It counts as physicochemical. The note with it: Formulation 2, 25° C. Here is the method:
The stability of Compound (1c) either as the HCl salt or as the free base was compared to the stability of melphalan HCl and/or bendamustine HCl in various pharmaceutical formulations and at different concentrations and at temperatures of 0° C. or 25° C.
The stability of the compounds in the pharmaceutical formulations was determined at concentrations within the range from 0.4 mg/mL to 0.5 mg/mL, from 0.9 mg/mL to 1.1 mg/mL, and from 1.8 mg/mL to 2.1 mg/mL.
The amount of the active pharmaceutical ingredient (API) (Compound (1c), melphalan or bendamustine) in the pharmaceutical formulations at different times during storage was determined using HPLC/UV as described in detail for Example 4 and Example 5.
Alkeran® is an injectable formulation of melphalan-HCl approved by the FDA. Alkeran® for injection is supplied as a sterile, nonpyrogenic, freeze-dried powder. Each vial contains melphalan hydrochloride equivalent to 50 mg melphalan and 20 mg povidone (polyvinylpyrrolidinone, PVP). The solid powder is recons trued in a sterile diluent containing 0.2 g of sodium citrate, 6.0 mL of propylene glycol, and 0.52 mL of ethanol (96%) and Water for Injection for a total of 10 mL. This provides a nominal 5 mg/mL solution of melphalan (admixture). The dose to be administered is immediately diluted in 0.9% sodium chloride injection, USP, to a concentration not greater than 0.45 mg/mL. Alkeran® for injection is administered intravenously.
A stock solution was prepared by dissolving 68.8 mg (0.206 mmol) of Compound (1c) (free base) and 25.0 mg of Plasdone® C-12 (Povidone; Ashland, 830796) in about 20.0 mL of a mixture of acetonitrile/water (1:1, v/v) with vortexing in clean graduated glass cylinder (25 mL). A solution of 0.407 mL of 0.5072 M aq. HCl (0.206 mmol, 1.0 eq.; Fluka, 318957) was added with gentle vortexing, and the resulting clear solution was further diluted to 25.0 mL with a mixture of acetonitrile/water (1:1, v/v) with gentle vortexing to afford a stock solution of Compound (1c) as a mono-HCl salt of a concentration 2.75 mg/mL and a Plasdone® concentration of 1.0 mg/mL. This solution was filtered through a 0.45 μm nylon syringe filter into a clean 50 mL Erlenmeyer flask. Aliquots of 2.0 mL (2× 1.0 mL; 2× 2.75 mg) of this stock solution were rapidly pipetted into clean 12 mL scintillation vials. The aliquots were frozen at −78° C. (dry ice/acetone bath) and lyophilized at about 100 mTorr for about 16 hours to provide test vials each containing 6.1 mg (0.0165 mmol) of Compound (1c) mono-hydrochloride salt (mono-HCl salt) (corresponding to 5.5 mg of Compound (1c), free base, as a colorless powdery solid.
A stock solution was prepared by dissolving 62.5 mg (0.205 mmol) of melphalan (free base; SigmaAldrich, M2011) and 25.0 mg of Plasdone® C-12 (Povidone; Ashland, 830796) in about 20.0 mL of a mixture of acetonitrile/water (1:1, v/v) with vortexing in clean graduated glass cylinder (25 mL). A solution of 0.404 mL of 0.5072 M aq. HCl (0.205 mmol, 1.0 eq.; Fluka, 318957) was added with gentle vortexing, and the resulting clear solution was further diluted to 25.0 mL with a mixture of acetonitrile/water (1:1, v/v) with gentle vortexing to afford a stock solution of melphalan as a mono-HCl salt of a concentration 2.50 mg/mL and a Plasdone® concentration of 1.0 mg/mL. This solution was filtered through a 0.45 μm nylon syringe filter into a clean 50 mL Erlenmeyer flask. Aliquots of 2.0 mL (2× 1.0 mL; 2×2.50 mg) of this stock solution were rapidly pipetted into clean 12 mL scintillation vials. The aliquots were frozen at −78° C. (dry ice/acetone bath) and lyophilized at about 100 mTorr for about 16 hours to provide test vials each containing 5.6 mg (0.0164 mmol) of melphalan mono-hydrochloride salt (mono-HCl salt) (corresponding to 5.0 mg of melphalan as a free base) as a colorless powdery solid. […]

Where [1] appears, read: pH 5.5-5.8, 0.5 hours, 0.4-0.5 mg/mL.
The mark [2] stands for this setting: pH 5.5-5.8, 0.5 hours, 0.9-1.1 mg/mL.
Where [3] appears, read: pH 5.5-5.8, 0.5 hours, 1.8-2.1 mg/mL.
The mark [4] stands for this setting: pH 5.5-5.8, 2.0 hours, 0.4-0.5 mg/mL.
Where [5] appears, read: pH 5.5-5.8, 2.0 hours, 0.9-1.1 mg/mL.
Setting [6] is: pH 5.5-5.8, 2.0 hours, 1.8-2.1 mg/mL.

On to `Cc1ccc(N(CCCl)CCCl)cc1C[C@H](N)CC(=O)O` [Compound (1c)•HCl, (S)-3-amino-4-(5-(bis(2-chloroethyl)amino)-2-methylphenyl) butanoic acid mono hydrochloride salt], for which the “% API” value under setting [1] was determined as 91%; the “% API” value under setting [2] stood at 89%; the “% API” value under setting [3] worked out at 89%; the “% API” value under setting [4] is 72%; the “% API” value under setting [5] worked out at 60%; the “% API” value under setting [6] stood at 62%.
On to `Cl.N[C@@H](Cc1ccc(N(CCCl)CCCl)cc1)C(=O)O` [Melphalan•HCl, 4-[bis(2-chloroethyl)amino]-L-phenylalanine hydrochloride, reference compound], for which the “% API” value was 95% under setting [1]; 91% under setting [2]; 91% under setting [3]; 84% under setting [4]; 71% under setting [5]; 75% under setting [6].
